Test results taken from US9115177B2, “Preparation method of micafungin sodium” (Shanghai Techwell Biopharmaceutical Co., Ltd., priority 2011, dated 2015).
Read-outs that look alike come from different tables or passages of the source. Marks after values point to notes of the source that are not given here. Numbered stars: 1 amine (or outer) side, 2 acyl side, 3 side chain; on linkers, the order of the positions; unused ones are H or OH. Bridge positions count the residues as written; N and C are the ends. Square brackets hold non-standard residues; d marks the D form. Peptide text beside a SMILES is read from it. * marks the point of attachment. hTyr(3S-OH,4S-OH,3'-OSO3H) = N[C@H](C(=O)O)[C@H](O)[C@@H](O)c1ccc(O)c(OS(=O)(=O)O)c1; Orn(4R-OH,5R-OH) = O=C([C@H](C[C@@H](O)[C@@H](O)N[*:3])N[*:1])[*:2]; Pro(3S-OH,4S-Me) = C[C@H]1CN[C@H](C(=O)O)[C@H]1O; X1 = CCCCCOc1ccc(-c2cc(-c3ccc(C(=O)*)cc3)no2)cc1; Gln(3R-OH) = NC(=O)C[C@@H](O)[C@H](N)C(=O)O; Hyp = O=C(O)[C@@H]1C[C@@H](O)CN1

How the values were obtained:
[1] = conjugate acid of weak base; cited from earlier work
[2] = pKa values of compounds of benzene sulfonic acid; format: physicochemical
Description: Generally, there are two ways for preparing acid into sodium salt. One is exchange using cationic resin; the other is via adjusting pH value. Virtually, preparing sodium salt by adjusting pH value is a process of neutralization reaction between acid and base. It includes two types of reactions, i.e. the reaction between strong acid and strong base, and the reaction between […]. If strong base solution is added into strong acid solution for adjusting pH value, there is a sharp change in the pH value of the solution (the change of pH value is illustrated in FIG. 6), and the pH value will be instantly altered by 8. Therefore in the practical production, it is hard to control the pH value and a slightest mistake could lead to an overregulated pH value. In WO2004014879, a 0.1 mol/L NaOH solution was used to adjust pH value to 6-8 for obtaining formula II compound. It was actually a reaction between strong acid and strong base. […] Therefore, theoretically, the method using NaOH solution to adjust pH values for obtaining sodium salt is unsuitable for preparation of formula II compound.

[3] = pH adjustment of formula I compound with 0.1 mol/L NaOH solution, HPLC; format: physicochemical; conditions: pH adjusted with 0.1 mol/L NaOH solution added dropwise
Description: The inventors have repeated the method reported in WO2004014879 for multiple times and analyzed and validated the reported method from the point of view of local pH value.
The method for measuring HPLC purity of Formula I compound is shown as follows.
HPLC analytical column: YMC-ODS 250×4.6 mm, 5 μm
Mobile phase: acetonitrile: phosphate buffer (pH 3.0)=[…]
Column temperature: 35±5° C.
Dilution: phosphate buffer in water
Wave length detected: 210 nm
Volume of sample injection: 10 μl
Retention time of the main peak: approx. 18 min.
According to the purification process for micafungin in WO2004014879, ion exchange was applied to 0.5 g of compound of formula I by using 50 ml of cation exchange resin UBK510L. The product was sampled and analyzed. HPLC purity was determined as 99.54%. […] The product was sampled and analyzed. HPLC purity was determined as 98.01% (See FIG. 2). […] The produce was sampled and analyzed. HPLC purity was determined as 97.90%. […] The product was sampled and analyzed. HPLC purity was determined as 97.81%. […] The product was sampled and analyzed. HPLC purity was determined as 97.75%. […] The product was sampled and analyzed. HPLC purity was determined as 97.67%. […] The product was sampled and analyzed. HPLC purity was determined as 97.59%. […] The product was sampled and analyzed.

SMILES | pKa1 [1] | pKa2 [1] | further results
OB(O)O [boric acid] | 9.24 | 12.74^a | pKa3 [1]: 13.80^a
S [hydrosulfuric acid] | 6.88 | 14.15^a | 
O=C(O)CC(O)C(=O)O (centres unmarked) [malic acid] | 3.40^a | 5.13 | 
CCCCCOc1ccc(-c2cc(-c3ccc(C(=O)N[C@H]4C[C@@H](O)[C@@H](O)NC(=O)[C@@H]5[C@@H](O)[C@@H](C)CN5C(=O)[C@H]([C@H](O)CC(N)=O)NC(=O)[C@H]([C@H](O)[C@@H](O)c5ccc(O)c(OS(=O)(=O)O)c5)NC(=O)[C@@H]5C[C@@H](O)CN5C(=O)[C@H]([C@@H](C)O)NC4=O)cc3)no2)cc1 [micafungin, Micafungin] (X1-[Orn(4R-OH,5R-OH)]T[Hyp][hTyr(3S-OH,4S-OH,3'-OSO3H)][Gln(3R-OH)][Pro(3S-OH,4S-Me)]; lactam 1-C) |  |  | pKa [2]: < 1; degradation after pH adjustment (HPLC) [3]: obvious degradation; stability in solution (pH 4.0-6.0): more stable; stability in solution (pH 4.0-7.0): stability is good; stability in solution (pH 4.5-5.5): most stable; stability in solution (pH of solution adjusted to 7): no obvious degradation; stability in solution (solution with high pH value): poor stability
C/C=C/C=C/C(=O)O [sorbic acid] | 4.76 |  | 
O=S(O)O [sulfurous acid] | 1.90^a | 7.20 | 
